# Assay results published in patent EP0595557A1, “New substituted azetidinones as anti-inflammatory and antidegenerative agents” (MERCK & CO. INC., priority 1992, dated 1994).
# Target: T1, Human Polymorphonuclear Leukocyte Elastase (Homo sapiens, UniProt P08246)
# T1 construct: Crude extract of human polymorphonuclear leukocytes (PMN) containing elastase activity; from tissue; host or cells: human polymorphonuclear leukocytes (crude extract)
# T1 sequence (P08246 30-267): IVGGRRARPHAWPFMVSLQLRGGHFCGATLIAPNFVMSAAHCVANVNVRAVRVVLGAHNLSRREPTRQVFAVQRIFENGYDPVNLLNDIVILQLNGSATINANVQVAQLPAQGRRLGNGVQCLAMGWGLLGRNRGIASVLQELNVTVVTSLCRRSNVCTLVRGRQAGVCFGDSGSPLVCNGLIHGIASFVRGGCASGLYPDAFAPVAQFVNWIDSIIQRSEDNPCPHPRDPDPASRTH
# Test: Enzyme assay for inhibition of human polymorphonuclear leukocyte elastase via hydrolysis of Boc-AAPAN or Boc-AAPVN
# Format: biochemical
# Details: pH 7.5, second order rate constant for inactivation of the enzyme, expressed to the nearest thousand, read-out: Kobs/[I]
# Experimental: Enzyme Assays for the Inhibition of Human Polymorphonuclear Leukocyte Elastase Via Hydrolysis of N-t-Boc-alanyl-alanyl-prolylalanine-p-nitroanilide (Boc-AAPAN) or N-t-Boc-alanyl-prolylvaline-p-nitro-anilide (Boc-AAPVN) Reagent:
# 0.05M TES (N-tris[hydroxymethyl]methyl-2-mino-ethanesulfonic acid) Buffer, pH 7.5.
# 0.2 mM Boc-AAPAN or Boc-AAPVN.
# To prepare substrate, the solid was first dissolved in 10.0 ml DMSO. Buffer at pH 7.5 was then added to a final volume of 100 ml.
# Crude extract of human polymorphonuclear leukocytes (PMN) containing elastase activity.
# Inhibitors (azetidinones) to be tested dissolved in DMSO just before use.
# To 1.0 ml of 0.2 mM Boc-AAPAN in a cuvette, 0.01-0.1 ml of DMSO with or without inhibitor was added. After mixing, a measurement was taken at 410 mµ to detect any spontaneous hydrolysis due to presence of test compound. 0.05 Milliliters of PMN extract was then added and the ΔOD/min at 410 mµ was measured and recorded. Beckman model 35 spectrophotometer was used.
# Results were expressed to the nearest thousand ^kobs/I which is the second order rate constant in per mole per second for inactivation of the enzyme.
# The elastase activity in the crude PMN extract may vary from one preparation to another. A control of each new batch is run, and the volume added in the assay procedure is adjusted according to activity.
row,kinact/KI [M⁻¹ s⁻¹],Compound
1,3e+06,"CCC[C@@H](NC(=O)N1C(=O)C(CC)(CC)[C@@H]1Oc1ccc(C(=O)OCC(=O)N(C)C)cc1)c1ccc(C)cc1 (relative stereo) [Compound 6, 2-(dimethylamino)-2-oxoethyl, (S-(R*,S*))-4-((3,3-Diethyl-1-(((1-(4-methyl-phenyl)butyl)amino)carbonyl)-4-oxo-2-azetidinyl)oxy)-benzoate]"
2,1.56e+06,"CCC[C@@H](NC(=O)N1C(=O)C(CC)(CC)[C@@H]1Oc1ccc(C(=O)OCCN(C)C(C)=O)cc1)c1ccc(C)cc1 (relative stereo) [Compound 7, 2-(N-methylacetamido)ethyl. {2-(R*,S*)}-4-{{3,3-Diethyl-1-{{{1-(4-methyl-phenyl)butyl}amino}carbonyl}-4-oxo-2-azetidinyl}oxy}-benzoate]"
3,1.57e+06,"CCC[C@@H](NC(=O)N1C(=O)C(CC)(CC)[C@@H]1Oc1ccc(C(=O)OCC(=O)N2CCC[C@H]2C(=O)O)cc1)c1ccc(C)cc1 (relative stereo) [Compound 9, (S(R*,S*))-1-(((4-((3,3-diethyl-1-(((1-(4-methylphenyl)butyl)amino)carbonyl)-4-oxo-2-azetidinyl)oxy)benzoyl)oxy)acetyl) L-proline]"
4,2.89e+06,"CCC[C@@H](NC(=O)N1C(=O)C(CC)(CC)[C@@H]1Oc1ccc(C(=O)O[C@@H](C)C(=O)OCc2ccccc2)cc1)c1ccc(C)cc1 (relative stereo) [Compound 10, 1-Methyl-2-oxo-2-(phenylmethoxy)ethyl(2S-(1(S*),R*,(R)))-4-((3,3-diethyl-1-(((1-(4-methylphenyl)butyl)amino)carbonyl)-4-oxo-2-azetidinyl)oxy) benzoate]"
5,3.59e+06,"CCC[C@@H](NC(=O)N1C(=O)C(CC)(CC)[C@@H]1Oc1ccc(C(=O)N2CCN(C3CC3)CC2)cc1)c1ccc(C)cc1 (relative stereo) [Compound 256, [S(R*,S*)]-2-[4-[[(4-Cyclopropyl)piperazin-1-yl]carbonyl]phenoxy]-((3,3-diethyl-N-[1-(4-methylphenyl)butyl]-4-oxo-1-azetidinecarboxamide]"
6,563000,"CCC[C@@H](NC(=O)N1C(=O)C(CC)(CC)[C@@H]1Oc1cc(C)c(C(=O)OCCN(C)C)c(C)c1)c1ccc(C)cc1 (relative stereo) [Compound 304, 2-(dimethylamino)ethyl [S,(R*,S*)]-4-[[3,3-diethyl-1-[[[1-(4-methylphenyl)butyl]amino]carbonyl]-4-oxo-2-azetidinyl]oxy]-2,6-dimethyl-benzoate]"
7,1.57e+06,"CCCC(NC(=O)N1C(=O)C(CC)(CC)C1Oc1ccc(C(=O)OCCN(C)C)cc1)c1ccc(C)cc1 (stereo not drawn) [Compound 1, 2-(dimethylamino)ethyl (S-(R*,S*))-4-((3,3-diethyl-1-(((1-(4-methyl-phenyl)butyl)amino)carbonyl)-4-oxo-2-azetidinyl)oxy)benzoate]"
8,1.67e+06,"CCCC(NC(=O)N1C(=O)C(CC)(CC)C1Oc1ccc(C(=O)OCC(=O)O)cc1)c1ccc(C)cc1 (stereo not drawn) [Compound 2, Carboxymethyl [S-(R*,S*)]4-((3,3-diethyl-1-(((1-(4-methyl-phenyl)butyl)amino)carbonyl)-4-oxo-2-azetidinyl)oxy)benzoate]"
9,3.43e+06,"CCCC(NC(=O)N1C(=O)C(CC)(CC)C1Oc1ccc(C(=O)OCC(=O)N(CCO)CCO)cc1)c1ccc(C)cc1 (stereo not drawn) [Compound 3, 2-(bis(2-hydroxyethyl)amino)-2-oxoethyl(S-(R*,S*))-4-((3,3-diethyl-1-(((1-(4-methyl-phenyl)butyl)amino)carbonyl)-4-oxo-2-azetidinyl)oxy) benzoate]"
10,4.29e+06,CCC[C@@H](NC(=O)N1C(=O)C(CC)(CC)[C@@H]1Oc1ccc(C(=O)OCC(=O)N(C)CC(N)=O)cc1)c1ccc(C)cc1 [Compound 4]
11,4.45e+06,CCC[C@@H](NC(=O)N1C(=O)C(CC)(CC)[C@@H]1Oc1ccc(C(=O)OCC(=O)NC(CO)(CO)CO)cc1)c1ccc(C)cc1 [Compound 5]
12,1.25e+07,CCC[C@@H](NC(=O)N1C(=O)C(CC)(CC)[C@@H]1Oc1ccc(C(=O)OCC(=O)N2CCC[C@H]2C(=O)OCc2ccccc2)cc1)c1ccc(C)cc1 [Compound 8]
13,1.13e+06,"CCC[C@@H](NC(=O)N1C(=O)C(CC)(CC)[C@@H]1Oc1ccc(C(=O)O[C@@H](C)C(=O)O)cc1)c1ccc(C)cc1 [Compound 11, 1-carboxy-ethyl [S-(R*,S*)]4-((3,3-diethyl-1-(((1-(4-methylphenyl)butyl)amino)carbonyl)-4-oxo-2-azetidinyl)oxy) benzoate]"
14,2.82e+06,"CCC[C@@H](NC(=O)N1C(=O)C(CC)(CC)[C@@H]1Oc1ccc(C(=O)O[C@@H](C)C(=O)N(CC)CC)cc1)c1ccc(C)cc1 [Compound 12, 2-(diethylamino)-1-methyl-2-oxoethyl[S-(R*,S*)]-4-((3,3-diethyl-1-(((1-(4-methyl-phenyl)butyl)amino)carbonyl)-4-oxo-2-azetidinyl)oxy) benzoate]"
15,2.47e+06,"CCC[C@@H](NC(=O)N1C(=O)C(CC)(CC)[C@@H]1Oc1ccc(C(=O)OC(C)CN(C)C)cc1)c1ccc(C)cc1 (stereo partly drawn) [Compound 13, 1-Dimethylamino-2-propyl [S-(R*,S*)]-4-[[3,3-diethyl-1-[[[1-(4-methyl-phenyl)butyl]amino]carbonyl]-4-oxo-2-azetidinyl]oxy]benzoate]"
16,2.86e+06,"CCC[C@@H](NC(=O)N1C(=O)C(CC)(CC)[C@@H]1Oc1ccc(C(=O)OCCCN(C)C)cc1)c1ccc(C)cc1 [Compound 14, 3-Dimethylamino-1-propyl [S-(R*,S*)]-4-[[3,3-diethyl-1-[[[1-(4-methyl-phenyl)butyl]amino]carbonyl]-4-oxo-2-azetidinyl]oxy]benzoate]"
17,2.16e+06,CCC[C@@H](NC(=O)N1C(=O)C(CC)(CC)[C@@H]1Oc1ccc(C(=O)OCC[N+](C)(C)[O-])cc1)c1ccc(C)cc1 [Compound 15]
18,2.29e+06,"CCC[C@@H](NC(=O)N1C(=O)C(CC)(CC)[C@@H]1Oc1ccc(C(=O)OCCN(CC)CC)cc1)c1ccc(C)cc1 [Compound 16, 2-Diethylaminoethyl [S-(R*,S*)]-4-[[3,3-diethyl-1-[[[1-(4-methyl-phenyl)butyl]amino]carbonyl]-4-oxo-2-azetidinyl]oxy]benzoate]"
19,4.73e+06,"CCC[C@@H](NC(=O)N1C(=O)C(CC)(CC)[C@@H]1Oc1ccc(C(=O)OCCN2CCOCC2)cc1)c1ccc(C)cc1 [Compound 17, 2-(1-[4-morpholino]ethyl) [S-(R*,S*)]-4-[[3,3-diethyl-1-[[[1-(4-methyl-phenyl)butyl]amino]carbonyl]-4-oxo-2-azetidinyl]oxy]benzoate]"
20,1.93e+06,"CCC[C@@H](NC(=O)N1C(=O)C(CC)(CC)[C@@H]1Oc1ccc(C(=O)OCCCCN(C)C)cc1)c1ccc(C)cc1 [Compound 18, 4-dimethylaminobutyl [S-(R*,S*)]-4-[[3,3-diethyl-1-[[[1-(4-methyl-phenyl)butyl]amino]carbonyl]-4-oxo-2-azetidinyl]oxy]benzoate]"
21,4.96e+06,"CCC[C@@H](NC(=O)N1C(=O)C(CC)(CC)[C@@H]1Oc1ccc(C(=O)OCC(=O)N2CCC[C@H]2C(=O)NCc2ccccc2)cc1)c1ccc(C)cc1 [Compound 19, [S-(R*,S*)] 1-(((4-((3,3-diethyl-1-(((1-(4-methylphenyl)butyl)amino)carbonyl-4-oxo-2-azetidinyl)oxy)benzoyl)oxy)acetyl-N-benzyl-L-prolinamide]"
22,1.47e+06,"CCC[C@@H](NC(=O)N1C(=O)C(CC)(CC)[C@@H]1Oc1ccc(C(=O)OCC(C)(C)N(C)C)cc1)c1ccc(C)cc1 [Compound 20, 2-dimethylamino-2-methyl-1-propyl [S-(R*,S*)]-4-[[3,3-diethyl-1-[[[1-(4-methyl-phenyl)butyl]amino]carbonyl]-4-oxo-2-azetidinyl]oxy]benzoate]"
23,1.67e+06,"CCC[C@@H](NC(=O)N1C(=O)C(CC)(CC)[C@@H]1Oc1ccc(C(=O)OCCN(C(C)C)C(C)C)cc1)c1ccc(C)cc1 [Compound 21, 2-(diisopropylamino)ethyl [S-(R*,S*)]-4-[[3,3-diethyl-1-[[[1-(4-methyl-phenyl)butyl]amino]carbonyl]-4-oxo-2-azetidinyl]oxy]benzoate]"
24,4.12e+06,"CCC[C@@H](NC(=O)N1C(=O)C(CC)(CC)[C@@H]1Oc1ccc(C(=O)OCCN2CCN(C(=O)OCc3ccccc3)CC2)cc1)c1ccc(C)cc1 [Compound 22, Benzyl [S-(R*,S*)]-4-[2-[[4-[[3,3-diethyl-1-[[[1-(4-methylphenyl)butyl]amino]carbonyl]-4-oxo-2-azetidinyl]oxy]benzoyl]oxy]-ethyl]-1-Piperazine-carboxylate]"
25,992000,"CCCCN(CCCC)CCOC(=O)c1ccc(O[C@@H]2N(C(=O)N[C@H](CCC)c3ccc(C)cc3)C(=O)C2(CC)CC)cc1 [Compound 23, 2-(dibutylamino)ethyl [S-(R*,S*)]-4-[[3,3-diethyl-1-[[[1-(4-methyl-phenyl)butyl]amino]carbonyl]-4-oxo-2-azetidinyl]oxy]benzoate]"
